Like-named read-outs stand apart in the source and are kept apart here.
Legend:
[1] = Population pharmacokinetics of artemether/dihydroartemisinin alone and with efavirenz, nevirapine or lopinavir/ritonavir (non-linear mixed effects modelling of plasma concentrations); assay type: in vivo, human; details: for Vc/F, apparent volume of distribution of the central compartment, population estimate [RSE %] / CL/F, apparent elimination clearance, population estimate [RSE %]: HIV-infected adults, oral artemether-lumefantrine, plasma; for CL/F, apparent elimination clearance, population estimate [RSE %]: parent fully converted to metabolite; for exposure: nevirapine or lopinavir/ritonavir (all three antiretroviral drugs); for LOPCL/F, effect on elimination clearance by concomitant treatment with lopinavir/ritonavir: concomitant lopinavir/ritonavir 400/100 mg, positive = increase
Text: Study 1 was a parallel group study in HIV-infected patients. Inclusion criteria were age >18 years, informed written consent and a confirmed HIV diagnosis. Exclusion criteria were anaemia (haemoglobin levels below 8 g dl^-1), viral loads above 400 counts ml^-1, malaria parasitaemia, abnormal liver or renal function, pregnancy, the use of substances which inhibit or induce CYP enzymes or P-glycoprotein, use of herbal medicines, prolonged QT interval, or any intercurrent illness. Ethics approval was received from the Uganda National HIV/AIDS Research Committee (ARC 056) and the Uganda National Council of Science and Technology (HS 195) and the study was registered with http://ClinicalTrials.gov (NCT 00619944). Study 2 was a three period, crossover study in HIV-infected patients. Inclusion and exclusion criteria were the same as for study 1 (i.e. age >18 years, informed written consent and a confirmed HIV diagnosis) except that there were no restrictions based on viral load, and patients with hypersensitivity to artemisinins, lumefantrine or halofantrine or any history of cardiac disease were excluded from the study. Ethics approval was received from the Uganda National HIV/AIDS Research Committee (ARC 059) and from the Uganda National Council of Science and Technology (HS 196). The study was registered at http://ClinicalTrials.gov (NCT00620438). Patients in the first arm were treated with 400/100 mg of lopinavir/ritonavir (Aluvia®, Abbott Laboratories, Abbott Park, Illinois, USA) and two nucleoside reverse transcriptase inhibitors (zidovudine and didanosine or tenofovir and emtricitabine, regional non-controlled procurement). The drugs were taken twice daily for at least 1 month before the start of the study. Patients in the second arm had not yet started their HIV therapy. At the initiation of the study all patients received a single dose of 80 mg artemether and 480 mg lumefantrine (four tablets) (Coartem®, Novartis Pharma AG, Basel, Switzerland; Batch number: F0660). Venous plasma samples were drawn at 1, 2, 4, 6, 8, 12, 24, 48 and 72 h post-dose. At the start of the study, all patients received a standard treatment of artemether and lumefantrine (80/480 mg twice daily for 3 days; Coartem®). Plasma samples were collected after the last dose at 1, 2, 4, 8, 12, 24, 48, 72, 96 and 120 h post-dosing. […] Patients received HIV treatment alone for 1 month and then were given a standard six dose treatment of artemether and lumefantrine concomitantly. Plasma samples were again collected after the last artemether-lumefantrine dose. Artemether/dihydroartemisinin and lumefantrine were quantified in plasma samples according to previously published methods. Artemether and dihydroartemisinin were measured using solid phase extraction and liquid chromatography coupled with tandem mass spectrometric detection. The total coefficient of variation (%CV) was less than 6% and the lower limit of quantification was set to 1.4 ng ml^-1. Lumefantrine was measured using solid phase extraction followed by liquid chromatography with ultraviolet detection. The total coefficient of variation was below 6% and the lower limit of quantification was set to 25 ng ml^-1. Modelling and simulations were performed in NONMEM v7.12 (Icon Development Solutions, Ellicott City, Maryland, USA). Model discrimination was based on the objective function value (OFV) which is proportional to -2 times the log-likelihood of the data. […]2.6.0 was used to document the modelling process. R v2.14.2 (the R Foundation for Statistical Computing, Vienna, Austria) and the package Xpose v4.3.5 [43] was used to perform model diagnostics. Perl-speaks-NONMEM v3.5.3 was used for automation throughout the modelling process. Data below the limit of quantification were initially omitted or modelled as categorical data (M3-method), if necessary. […]

[2] = cited from earlier work
[3] = Population pharmacokinetics of lumefantrine/desbutyl-lumefantrine alone and with efavirenz, nevirapine or lopinavir/ritonavir (non-linear mixed effects modelling of plasma concentrations); assay type: in vivo, human; details: for CL/F, apparent elimination clearance, population estimate [RSE %]: parent fully converted to metabolite; for LOPCL/F, effect on elimination clearance by concomitant treatment with lopinavir/ritonavir: concomitant lopinavir/ritonavir 400/100 mg; for LOPCL/F, effect on elimination clearance by concomitant treatment with lopinavir/ritonavir / EFZCL/F, effect on elimination clearance by concomitant treatment with efavirenz: positive = increase; for EFZCL/F, effect on elimination clearance by concomitant treatment with efavirenz: concomitant efavirenz 600 mg
Text: Study 1 was a parallel group study in HIV-infected patients. Inclusion criteria were age >18 years, informed written consent and a confirmed HIV diagnosis. Exclusion criteria were anaemia (haemoglobin levels below 8 g dl^–1), viral loads above 400 counts ml^−1, malaria parasitaemia, abnormal liver or renal function, pregnancy, the use of substances which inhibit or induce CYP enzymes or P-glycoprotein, use of herbal medicines, prolonged QT interval, or any intercurrent illness. Ethics approval was received from the Uganda National HIV/AIDS Research Committee (ARC 056) and the Uganda National Council of Science and Technology (HS 195) and the study was registered with http://ClinicalTrials.gov (NCT 00619944).
Study 2 was a three period, crossover study in HIV-infected patients. Inclusion and exclusion criteria were the same as for study 1 (i.e. age >18 years, informed written consent and a confirmed HIV diagnosis) except that there were no restrictions based on viral load, and patients with hypersensitivity to artemisinins, lumefantrine or halofantrine or any history of cardiac disease were excluded from the study. Ethics approval was received from the Uganda National HIV/AIDS Research Committee (ARC 059) and from the Uganda National Council of Science and Technology (HS 196). The study was registered at http://ClinicalTrials.gov (NCT00620438).
Patients in the first arm were treated with 400/100 mg of lopinavir/ritonavir (Aluvia®, Abbott Laboratories, Abbott Park, Illinois, USA) and two nucleoside reverse transcriptase inhibitors (zidovudine and didanosine or tenofovir and emtricitabine, regional non-controlled procurement). The drugs were taken twice daily for at least 1 month before the start of the study. Patients in the second arm had not yet started their HIV therapy. At the initiation of the study all patients received a single dose of 80 mg artemether and 480 mg lumefantrine (four tablets) (Coartem®, Novartis Pharma AG, Basel, Switzerland; Batch number: F0660). Venous plasma samples were drawn at 1, 2, 4, 6, 8, 12, 24, 48 and 72 h post-dose.
At the start of the study, all patients received a standard treatment of artemether and lumefantrine (80/480 mg twice daily for 3 days; Coartem®). Plasma samples were collected after the last dose at 1, 2, 4, 8, 12, 24, 48, 72, 96 and 120 h post-dosing. After 1 week of wash-out, patients started HIV treatment with either nevirapine (200 mg) or efavirenz (600 mg) combined with the nucleoside reverse transcriptase inhibitors zidovudine and lamivudine. Patients received HIV treatment alone for 1 month and then were given a standard six dose treatment of artemether and lumefantrine concomitantly. Plasma samples were again collected after the last artemether-lumefantrine dose.
Artemether/dihydroartemisinin and lumefantrine were quantified in plasma samples according to previously published methods. Artemether and dihydroartemisinin were measured using solid phase extraction and liquid chromatography coupled with tandem mass spectrometric detection. […] Lumefantrine was measured using solid phase extraction followed by liquid chromatography with ultraviolet detection.
Desbutyl-lumefantrine was measured using liquid chromatography (Model 1200 system, Agilent Technologies) coupled with tandem mass spectrometric detection (API5000 triple-quadrupole system, AB Sciex). Desbutyl-lumefantrine and its analogue internal standard (C28H28CL3NO [39]) were extracted from plasma samples (100 μl) by protein precipitation followed by phospholipid removal (Hybrid SPE-Precipitation 96-wellplate, 575656-U, Supelco).

[4] = stated in methods, no reference given
[5] = HIV-infected adults, oral artemether-lumefantrine, plasma
[6] = concomitant lopinavir/ritonavir

Question: For C[C@H]1[C@@H](O)O[C@@H]2O[C@@]3(C)CC[C@H]4[C@H](C)CC[C@@H]1[C@@]24OO3 [dihydroartemisinin], which “Vc/F, apparent volume of distribution of the central compartment, population estimate [RSE %]” value (shortened to “Vc/F, apparent volume of distribution … [RSE %]”) [1] is on record?
Answer: 14.9 [39.8] l

Question: And the “CL/F, apparent elimination clearance, population estimate [RSE %]” value (“CL/F … [RSE %]” for short) [1]?
Answer: 160 [4.93] l h^−1

Question: And the exposure ([1]; concomitant efavirenz)?
Answer: decreased

Question: And the “LOPCL/F, effect on elimination clearance by concomitant treatment with lopinavir/ritonavir” value (“LOPCL/F, effect … with lopinavir/ritonavir” for short) [1]?
Answer: 143%

Question: What about the “LOPCL/F, effect … with lopinavir/ritonavir” value ([1]; listed as Dihydroartemisinin) of the same compound?
Answer: 143 [19.7] %

Question: What about the “decrease of elimination clearance” value ([1]; concomitant nevirapine) of the same compound?
Answer: 44%

Question: What about the “NEVCL/F, effect on elimination clearance by concomitant treatment with nevirapine” value ([1]; concomitant nevirapine 200 mg) of the same compound?
Answer: −44.5 [14.5] %

Question: And the half-life [2]?
Answer: 0.8 to 2.1 h

Question: And the terminal half-life [2, 4]?
Answer: 1 to 2 h

Question: Which “CL/F … [RSE %]” value [3, 5] does the source give for CCCCNCC(O)c1cc(Cl)cc2c1-c1ccc(Cl)cc1/C2=C/c1ccc(Cl)cc1 (centres unmarked) [desbutyl-lumefantrine] here?
Answer: 489 [5.98] l h^−1

Question: And the exposure [3, 6]?
Answer: decreased exposure

Question: What about the “LOPCL/F, effect … with lopinavir/ritonavir” value [3] of the same compound?
Answer: 392%

Question: What about the “LOPCL/F, effect … with lopinavir/ritonavir” value ([3]; listed as Desbutyl-Lumefantrine) of the same compound?
Answer: 392 [17.6] %

Question: And the exposure ([3]; concomitant nevirapine, due to lower bioavailability of lumefantrine)?
Answer: decreased

Question: Which “Vc/F, apparent volume of distribution … [RSE %]” value [1] does the source give for CO[C@H]1O[C@@H]2O[C@@]3(C)CC[C@H]4[C@H](C)CC[C@@H]([C@H]1C)[C@@]24OO3 [artemether] here?
Answer: 1090 [8.69] l

Question: And the “CL/F … [RSE %]” value [1]?
Answer: 317 [8.25] l h^−1

Question: What about the “Hill coefficient in the maturation model (auto-induction)” value ([1]; MMAX 1 FIX, MF50 62 FIX, reduced dataset) of the same compound?
Answer: 0.445 [43.9 ^‡]

Question: What about the “decrease of relative bioavailability” value ([1]; concomitant efavirenz) of the same compound?
Answer: 71%

Question: And the exposure ([1]; concomitant efavirenz)?
Answer: decreased

Question: And the “LOPCL/F, effect … with lopinavir/ritonavir” value [1]?
Answer: 32.8%

Question: And the “LOPCL/F, effect … with lopinavir/ritonavir” value ([1]; listed as Artemether)?
Answer: 32.8 [21.5] %

Question: What about the “decrease of relative bioavailability” value ([1]; concomitant nevirapine) of the same compound?
Answer: 66%

Question: And the “MTT, mean transit time of the absorption phase, population estimate [RSE %]” value ([1]; three transit compartments)?
Answer: 0.970 [6.58] h

Question: And the terminal half-life [2]?
Answer: 1.5 to 2.0 h

Question: With CCCCN(CCCC)CC(O)c1cc(Cl)cc2c1-c1ccc(Cl)cc1/C2=C/c1ccc(Cl)cc1 (centres unmarked) [lumefantrine] as the compound, how does the “Q/F, inter-compartment clearance, population estimate [RSE %]” value [3, 5] read?
Answer: 2.86 [19.4] l h^−1

Question: And the “VP/F, apparent volume of distribution of the peripheral compartment, population estimate [RSE %]” value [3, 5]?
Answer: 111 [9.14] l

Question: And the “Vc/F, apparent volume of distribution … [RSE %]” value [3, 5]?
Answer: 68.9 [27.1] l

Question: And the “CL/F … [RSE %]” value [3, 5]?
Answer: 4.77 [5.30] l h^−1

Question: And the “EFZCL/F, effect on elimination clearance by concomitant treatment with efavirenz” value [3]?
Answer: 72.6%

Question: What about the “EFZCL/F, effect on elimination clearance by concomitant treatment with efavirenz” value ([3]; listed as Lumefantrine) of the same compound?
Answer: 72.6 [17.2] %

Question: And the “decrease of elimination clearance” value [3, 6]?
Answer: 62%

Question: What about the “LOPCL/F, effect … with lopinavir/ritonavir” value [3] of the same compound?
Answer: −62.1 [8.48] %

Question: What about the “lowering of relative bioavailability” value ([3]; concomitant nevirapine) of the same compound?
Answer: 25%

Question: And the “MTT, mean transit time of the absorption, population estimate [RSE %]” value ([3]; one transit compartment)?
Answer: 6.27 [21.2] h

Question: And the elimination half-life [2]?
Answer: 48 to 96 h

Question: What about the “increase of exposure for a 100% dose increase (dose limited absorption, assumed in simulations)” value [2] of the same compound?
Answer: 70%

Question: And the “systemic exposure relative to its metabolite desbutyl-lumefantrine” value [2]?
Answer: 85- to 300 fold

Question: And the terminal half-life [2, 4]?
Answer: 79.2 h

From PMC4386948, “Artemether-lumefantrine co-administration with antiretrovirals: population pharmacokinetics and dosing implications” (British Journal of Clinical Pharmacology, 2014)
